Legend:
[1] = target: A. baumannii PBP1a (Acinetobacter baumannii, UniProt A0ABX6CK30); test: Bocillin-FL fluorescence polarization competition binding assay, A. baumannii PBP1a
From the text: (§1) Example I: Experimental Method for Penicillin-Binding Protein Binding Assays with Bocillin-FL Via Fluorescence Polarization
To determine the ability of boronic acid-based test PBP inhibitors to bind Penicillin Binding Proteins (PBPs), Bocillin-FL (fluorescently-labeled penicillin V; ThermoFisher Scientific) was used in a fluorescence polarization (FP) competition binding assay to assess inhibitor binding to PBP2, PBP3 or PBP4 from Escherichia coli (K12), PBP3 from Pseudomonas aeruginosa (PA01), PBP1a, PBP2 and PBP3 from Acinetobacter baumannii (ATCC 19606), and PBP2 from Neiserria gonorrheae (FA19). PBPs were cloned and purified as described previously (E. coli PBPs, King, D. T, et al., ACS Infectious Diseases 2015, 1, 175-184; P. aeruginosa PBP3, Han et. al., PNAS 2010, 107 (51), 22002-22007; A. baumannii PBPs, Penwell et. al., Antimicrob. Agents Chemother. 2015, 59 (3), 1680-1689; N. gonorrhoeae PBP2, Singh et. al., J Biol. Chem. 2019, 294 (38), 14020-14032). To establish assay conditions for competition binding, enzyme titration/saturation binding experiments were initially performed. Bocillin-FL was prepared at 0.2 μM in a buffer comprised of 50 mM Hepes (pH 8.0), 300 mM NaCl and 5% (v/v) glycerol for reactions with E. coli, P. aeruginosa and N. gonorrhoeae PBPs, and 25 mM Tris (pH 8.0), 200 mM NaCl and 10% (v/v) glycerol and 0.005% (v/v) Tween 20 for reactions with A. baumannii PBPs. Saturation binding was performed by mixing 40 μl of PBP solutions ranging in concentrations from 0-24 μM with 40 μl of the 0.2 μM Bocillin-FL solution, in individual wells of a black 384-well microplate. FP was measured immediately upon mixing (Excitation, 490 nm; Emission, 520 nm; g-factor, 0.96), using a Cytation3 (BioTek) microplate reader and measured continuously for up to 120 minutes. […] The competition binding assay (80 μl final volume) was validated using beta-lactams and PBPs at final concentrations of: 1.5 μM, E. coli PBP3; 0.75 μM, P. aeruginosa PBP3; 1 μM A. baumannii PBP1a; 2.5 μM A. baumannii PBP2; 0.2 μM A. baumannii PBP3; and […] N. gonorrhoeae PBP2. Bocillin-FL was at 0.1 μM (0.05 μM with A. baumannii PBP1a) and beta-lactam concentrations ranged from 0-1000 μM. […] Bocillin-FL was added and the FP immediately measured for up to 60 minutes (90 minutes for E. coli PBP2). […] The beta-lactam potency was reported as the concentration of beta-lactam required to reduce the amount of PBP bound-Bocillin-FL by 50% (EC50). […] Binding assays for boronic acid PBP inhibitors were performed in an identical fashion for the respective PBPs

[2] = target: A. baumannii PBP3 (Acinetobacter baumannii, UniProt A0ABX6CK25); test: Bocillin-FL fluorescence polarization competition binding assay, A. baumannii PBP3
Outline: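 Fluorescence polarization (ex 490/em 520 nm) competition of inhibitors against Bocillin-FL at 0.1 μM, read up to 60 min. Final PBP levels: E. coli PBP3 1.5 μM; A. baumannii PBP2 2.5 μM, PBP3 0.2 μM in Tris pH 8.0/NaCl/glycerol/Tween 20; N. gonorrhoeae PBP2 […] in Hepes pH 8.0/NaCl/glycerol. EC50 = concentration halving PBP-bound Bocillin-FL.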

[3] = target: T1, E. coli K12 PBP4 (Escherichia coli, UniProt P24228); test: Bocillin-FL fluorescence polarization competition binding assay, E. coli PBP4; details: E. coli PBP4; assay validation with beta-lactams; read-out: EC50 (concentration of beta-lactam required to reduce the amount of PBP bound-Bocillin-FL by 50%)
T1 construct: made in house
From the text: as §1
To determine the ability of boronic acid-based test PBP inhibitors to bind Penicillin Binding Proteins (PBPs), Bocillin-FL (fluorescently-labeled penicillin V; ThermoFisher Scientific) was used in a fluorescence polarization (FP) competition binding assay to assess inhibitor binding to PBP2, PBP3 or PBP4 from Escherichia coli (K12), PBP3 from Pseudomonas aeruginosa (PA01), PBP1a, PBP2 and PBP3 from Acinetobacter baumannii (ATCC 19606), and PBP2 from Neiserria gonorrheae (FA19). PBPs were cloned and purified as described previously (E. coli PBPs, King, D. T, et al., ACS Infectious Diseases 2015, 1, 175-184; P. aeruginosa PBP3, Han et. al., PNAS 2010, 107 (51), 22002-22007; A. baumannii PBPs, Penwell et. al., Antimicrob. Agents Chemother. 2015, 59 (3), 1680-1689; N. gonorrhoeae PBP2, Singh et. al., J Biol. Chem. 2019, 294 (38), 14020-14032). To establish assay conditions for competition binding, enzyme titration/saturation binding experiments were initially performed. Bocillin-FL was prepared at 0.2 μM in a buffer comprised of 50 mM Hepes (pH 8.0), 300 mM NaCl and 5% (v/v) glycerol for reactions with E. coli, P. aeruginosa and N. gonorrhoeae PBPs, and 25 mM Tris (pH 8.0), 200 mM NaCl and 10% (v/v) glycerol and 0.005% (v/v) Tween 20 for reactions with A. baumannii PBPs. Saturation binding was performed by mixing 40 μl of PBP solutions ranging in concentrations from 0-24 μM with 40 μl of the 0.2 μM Bocillin-FL solution, in individual wells of a black 384-well microplate. FP was measured immediately upon mixing (Excitation, 490 nm; Emission, 520 nm; g-factor, 0.96), using a Cytation3 (BioTek) microplate reader and measured continuously for up to 120 minutes. […] Bocillin-FL was added and the FP immediately measured for up to 60 minutes (90 minutes for E. coli PBP2). […]

SMILES: C[C@@H](O)[C@H]1C(=O)N2C(C(=O)O)=C(S[C@@H]3CN[C@H](C(=O)N(C)C)C3)[C@H](C)[C@H]12 [meropenem, reference compound]
- EC50 [1]: 230 nM
- EC50 [2]: 230 nM
- EC50 [3]: < 2000 nM

From patent US20230114728A1 (Venatorx Pharmaceuticals, Inc., priority 2019, published 2023)
